Columns and labels:
Format in all cases: cell-based
[1] = tested on: amphotericin B-resistant or fluconazole-resistant C. albicans; test: Co-culture of mammalian cells and C. albicans: fungal proliferation; conditions: 40 μM, 24 hours, serum-containing medium
Protocol: For co-culture experiments, confluent layers of NIH 3T3 cells were established in 6-well plates. The following day, the medium was replaced with RPMI1640+10% FBS containing the amphotericin-resistant strain CaAmphR at […] colony forming units per ml and 40 μM gepinacin or an equivalent amount of DMSO. Co-cultures were incubated for 24 hours at 37° C. in a micro-isolator box. Images were acquired on a Nikon Eclipse TS100 microscope at 40×.
Having determined the target of gepinacin in fungi, gepinacin's effect on the human ortholog of Gwt1, PIG-W, was examined. To determine if gepinacin remained active under mammalian cell culture conditions cultured fungi were cultured (either an amphotericin B-resistant (FIG. 3a) or fluconazole-resistant (data not shown) isolate of C. albicans) and mammalian cells together with 40 μM gepinacin. […] PIG-W (and GPI anchor biosynthesis) is not essential for mammalian cells in culture.

PIG-W = biological target: T1, PIG-W (Homo sapiens, UniProt Q7Z7B1); test: Growth of S. cerevisiae strain whose GWT1 is replaced by the human gene PIG-W
T1 construct: expressed in transfected cells; host or cells: S. cerevisiae BY4741-derived gwt1 deletion shuttle strain carrying a pAG415GPD-based PIG-W plasmid
T1 sequence (Q7Z7B1 1-504): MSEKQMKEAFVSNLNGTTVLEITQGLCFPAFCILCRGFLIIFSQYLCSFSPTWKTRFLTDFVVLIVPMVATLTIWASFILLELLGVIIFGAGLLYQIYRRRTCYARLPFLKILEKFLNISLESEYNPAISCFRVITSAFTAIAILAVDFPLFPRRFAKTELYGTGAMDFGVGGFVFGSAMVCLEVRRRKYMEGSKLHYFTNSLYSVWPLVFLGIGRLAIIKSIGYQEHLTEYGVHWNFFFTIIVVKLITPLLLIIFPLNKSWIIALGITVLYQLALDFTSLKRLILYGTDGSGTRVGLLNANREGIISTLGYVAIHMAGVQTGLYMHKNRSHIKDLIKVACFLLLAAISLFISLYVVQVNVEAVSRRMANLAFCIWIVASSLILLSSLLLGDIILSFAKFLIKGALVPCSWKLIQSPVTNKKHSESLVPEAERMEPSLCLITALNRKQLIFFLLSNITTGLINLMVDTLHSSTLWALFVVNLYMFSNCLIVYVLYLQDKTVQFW
Protocol: Sensitivity to gepinacin was determined in 96-well, flat bottom microtiter plates using a modification of the NCCLS broth microdilution protocol CLS M27-A3 and RPMI as culture medium. Fungi were inoculated at ˜10^3 cells per ml and incubated for 48 hours at 37° C. after which plates were sealed, shaken and the optical density read at 600 nm (OD600) on a Tecan Safire 2 plate reader. All samples were run in duplicate or triplicate and assays were repeated at least once. Results are expressed as fraction of growth in the absence of compound and the mean and standard deviation are plotted. For the mold A. terreus, inoculum was 10^4 cells per ml and plates were incubated at 35° C. for 48 hours in the dark. Plates were then visually scored as specified by CLSI document M38-A2 to determine the MIC50 and MIC80.
Because GWT1 deletion is lethal in S. cerevisiae strain BY4741, a haploid shuttle strain was constructed in which the genomic copy of GWT1 was deleted and replaced by GWT1 on a plasmid that also encoded the URA3 gene and a G418-resistance gene. […]
An S. cerevesiae strain was generated in which the endogenous Gwt1 gene was deleted. […] Shown in FIGS. 22A-D show the effect of the indicated compounds on growth (assessed by OD600) and viability (assessed using Bactiter Glo) of the yeast strain with high copy or low copy plasmid containing S. cerevesiae Gwt1. […]

[2] = tested on: S. cerevisiae strain Sigma 1278B; test: Filamentation on solid media; conditions: 5 μM, 6 days
Protocol: For liquid assays, C. albicans strains were grown overnight in YPD with DMSO or 5 μM gepinacin. After dilution to an OD600 of 0.1 in Spider media, growth was continued for an additional 3 hours with agitation at 37° C. in the presence of compound before transfer to a 24 well plate for imaging (Shen, et al. (2008) Proc Natl Acad Sci USA 105, 20918-20923). Assays with S. cerevisiae strain Sigma 1278B on solid media were performed as previously described (Liu, et al. (1994) Science 266, 1723-1726) except gepinacin was added directly to partially cooled plate media and colonies were imaged after growth for 6 or 9 days at 30° C.

For `COc1ccc(NC(=O)COc2cccc(OCC(C)C)c2)cc1` [gepinacin], the “fungal proliferation in co-culture” value [1] was “profound inhibition of proliferation”, the “activity against PigW / in the PIG-W expressing strain” value (PIG-W) was “inactive” and the “filamentation on solid media” value [2] was “blocked filamentation”.
